Test results from BindingDB's records for PubMed 38621327 (Hebei University).

Experiments:
[1] = biological target: Transcriptional enhancer factor TEF-3 (Homo sapiens, UniProt Q15561); assay: Inhibition of GST-tagged recombinant TEAD4 (unknown origin) (217 to 434 residues) expressed in Escherichia coli BL21 (DE3) by fluorescence polarization assay
[2] = Binding affinity to rat heart mitochondria CPT1 assessed as inhibition constant incubated for 3 to 6 mins by Liquid scintillation counting method

Chain of Transcriptional enhancer factor TEF-3 (Q15561 whole entry, the tested form may be a part): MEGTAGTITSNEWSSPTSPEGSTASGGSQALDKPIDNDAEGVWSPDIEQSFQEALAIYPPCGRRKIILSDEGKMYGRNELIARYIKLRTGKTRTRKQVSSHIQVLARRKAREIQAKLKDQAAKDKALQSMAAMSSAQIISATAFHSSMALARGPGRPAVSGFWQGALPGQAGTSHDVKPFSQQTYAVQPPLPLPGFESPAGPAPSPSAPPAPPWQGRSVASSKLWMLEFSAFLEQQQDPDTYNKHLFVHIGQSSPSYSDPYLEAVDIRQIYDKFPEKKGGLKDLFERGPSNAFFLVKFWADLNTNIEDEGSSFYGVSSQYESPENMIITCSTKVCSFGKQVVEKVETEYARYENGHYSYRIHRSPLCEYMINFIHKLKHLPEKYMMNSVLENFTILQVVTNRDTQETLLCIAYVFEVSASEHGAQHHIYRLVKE

Compound | EC50 [1] | Ki [2]
O=C(CCl)c1ccccc1Nc1cccc(C(F)(F)F)c1 | 5.9 µM | 
CCCCCCCCCCCCCCC[C@]1(O)C[C@H](CC(=O)[O-])C[N+](C)(C)C1 |  | 2.8 µM
